Measured values reported in PubChem BioAssay (NCI).
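Cultured in 96-well plates, cells were exposed to test compound for 48 hours across five concentrations. The concentration for 50% growth inhibition is given as GI50. TGI denotes the concentration required for complete inhibition of growth.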

What was measured:
Assay in all cases: NCI tumour cell line growth inhibition, 48 h
OVCAR-3 ovarian = system: OVCAR-3 ovarian
MALME-3M melanoma = system: MALME-3M melanoma
SK-MEL-28 melanoma = system: SK-MEL-28 melanoma
IGROV1 ovarian = system: IGROV1 ovarian
OVCAR-5 ovarian = system: OVCAR-5 ovarian
SR leukemia = system: SR leukemia
ACHN renal = system: ACHN renal
SNB-19 CNS = system: SNB-19 CNS
LOX IMVI melanoma = system: LOX IMVI melanoma
UACC-62 melanoma = system: UACC-62 melanoma
NCI-H460 lung = system: NCI-H460 lung
786-0 renal = system: 786-0 renal
NCI/ADR-RES ovarian = system: NCI/ADR-RES ovarian
SNB-75 CNS = system: SNB-75 CNS
HS 578T breast = system: HS 578T breast
RPMI-8226 leukemia = system: RPMI-8226 leukemia
NCI-H226 lung = system: NCI-H226 lung
K-562 leukemia = system: K-562 leukemia
MDA-MB-435 = system: MDA-MB-435
COLO 205 colon = system: COLO 205 colon
SF-539 CNS = system: SF-539 CNS
RXF 393 renal = system: RXF 393 renal
T-47D breast = system: T-47D breast
SW-620 colon = system: SW-620 colon
HOP-62 NSCLC = system: HOP-62 NSCLC
OVCAR-4 ovarian = system: OVCAR-4 ovarian
PC-3 prostate = system: PC-3 prostate
KM12 colon = system: KM12 colon
MOLT-4 leukemia = system: MOLT-4 leukemia
HCT-116 colon = system: HCT-116 colon
UO-31 renal = system: UO-31 renal
NCI-H23 lung = system: NCI-H23 lung
SN12C renal = system: SN12C renal
HOP-92 NSCLC = system: HOP-92 NSCLC
U251 CNS = system: U251 CNS
SF-268 CNS = system: SF-268 CNS
SF-295 CNS = system: SF-295 CNS
CCRF-CEM leukemia = system: CCRF-CEM leukemia
MDA-MB-231 breast = system: MDA-MB-231 breast
DU-145 prostate = system: DU-145 prostate
EKVX NSCLC = system: EKVX NSCLC
HCT-15 colon = system: HCT-15 colon
BT-549 breast = system: BT-549 breast
SK-MEL-5 melanoma = system: SK-MEL-5 melanoma
A498 renal = system: A498 renal
MCF7 breast = system: MCF7 breast
OVCAR-8 ovarian = system: OVCAR-8 ovarian
TK-10 renal = system: TK-10 renal
A549 NSCLC = system: A549 NSCLC
UACC-257 melanoma = system: UACC-257 melanoma
CAKI-1 renal = system: CAKI-1 renal
SK-MEL-2 melanoma = system: SK-MEL-2 melanoma
HT29 colon = system: HT29 colon
NCI-H522 lung = system: NCI-H522 lung
M14 melanoma = system: M14 melanoma
SK-OV-3 ovarian = system: SK-OV-3 ovarian
HL-60(TB) leukemia = system: HL-60(TB) leukemia
HCC-2998 colon = system: HCC-2998 colon

In the case of `Cn1cnc([N+](=O)[O-])c1[Se]c1ncnc2nc[nH]c12`, the TGI (OVCAR-3 ovarian) is reported as 29.5 µM, the TGI (MALME-3M melanoma) is reported as 21.1 µM and the TGI (SK-MEL-28 melanoma) is reported as 20.3 µM. For the same molecule, the TGI (IGROV1 ovarian) was > 100 µM, the TGI (OVCAR-5 ovarian) was 36.2 µM and the TGI (SR leukemia) was 17 µM. The TGI (ACHN renal) was 83.5 µM, the TGI (SNB-19 CNS) was 85.8 µM and the TGI (LOX IMVI melanoma) was 10.8 µM. The TGI (UACC-62 melanoma) was 10.1 µM, the TGI (NCI-H460 lung) was > 100 µM and the TGI (786-0 renal) was 26.5 µM. The TGI (NCI/ADR-RES ovarian) was > 100 µM, the TGI (SNB-75 CNS) was > 100 µM and the TGI (HS 578T breast) was 39.9 µM. For the same molecule, the TGI (RPMI-8226 leukemia) was 71.7 µM, the TGI (NCI-H226 lung) was 22.6 µM and the TGI (K-562 leukemia) was 25.6 µM. It also gave a TGI (MDA-MB-435) of 19.5 µM, a TGI (COLO 205 colon) of 33.3 µM and a TGI (SF-539 CNS) of 30.9 µM. The TGI (RXF 393 renal) was 38.7 µM, the TGI (T-47D breast) was 32.8 µM and the TGI (SW-620 colon) was 26.8 µM. The TGI (HOP-62 NSCLC) was 50.3 µM, the TGI (OVCAR-4 ovarian) was 23.5 µM and the TGI (PC-3 prostate) was > 100 µM. The TGI (KM12 colon) was 54.1 µM, the TGI (MOLT-4 leukemia) was 22 µM and the TGI (HCT-116 colon) was 74.5 µM. For the same molecule, the TGI (UO-31 renal) was 60 µM, the TGI (NCI-H23 lung) was 61.1 µM and the TGI (SN12C renal) was 32.8 µM. The TGI (HOP-92 NSCLC) was 27.9 µM, the TGI (U251 CNS) was 44 µM and the TGI (SF-268 CNS) was 78.9 µM. For the same molecule, the TGI (SF-295 CNS) was > 100 µM, the TGI (CCRF-CEM leukemia) was 34.1 µM and the TGI (MDA-MB-231 breast) was 19.2 µM. For the same molecule, the TGI (DU-145 prostate) was > 100 µM, the TGI (EKVX NSCLC) was 47.4 µM and the TGI (HCT-15 colon) was 81.6 µM. For the same molecule, the TGI (BT-549 breast) was 33.8 µM, the TGI (SK-MEL-5 melanoma) was 6.6 µM and the TGI (A498 renal) was 37 µM. The TGI (MCF7 breast) was 41.8 µM, the TGI (OVCAR-8 ovarian) was 32.2 µM and the TGI (TK-10 renal) was > 100 µM. For the same molecule, the TGI (A549 NSCLC) was > 100 µM, the TGI (UACC-257 melanoma) was 16.8 µM and the TGI (CAKI-1 renal) was 22.1 µM. The TGI (SK-MEL-2 melanoma) was 34.5 µM, the TGI (HT29 colon) was 84.4 µM and the TGI (NCI-H522 lung) was 14.7 µM. The TGI (M14 melanoma) was 24.8 µM and the TGI (SK-OV-3 ovarian) was > 100 µM.
`CC1CN1C1=CC(=O)c2c(c(CO)cn2C)C1=O` (stereo not given) was tested, and the GI50 (OVCAR-3 ovarian) was 0.254 µM, the TGI (OVCAR-3 ovarian) was 1.11 µM and the GI50 (HL-60(TB) leukemia) was 22.9 µM. It also gave a TGI (HL-60(TB) leukemia) of 75.2 µM, a GI50 (SK-MEL-28 melanoma) of 0.491 µM and a GI50 (IGROV1 ovarian) of 0.306 µM. The TGI (IGROV1 ovarian) was 5.15 µM, the GI50 (OVCAR-5 ovarian) was 1.55 µM and the TGI (OVCAR-5 ovarian) was 14.8 µM. The GI50 (SR leukemia) was 0.0112 µM, the TGI (SR leukemia) was 0.069 µM and the GI50 (SNB-19 CNS) was 0.247 µM. For the same molecule, the TGI (SNB-19 CNS) was 3.74 µM, the GI50 (LOX IMVI melanoma) was 0.066 µM and the TGI (LOX IMVI melanoma) was 0.387 µM. The GI50 (UACC-62 melanoma) was 0.144 µM, the TGI (UACC-62 melanoma) was 0.431 µM and the TGI (NCI-H460 lung) was 0.651 µM. For the same molecule, the GI50 (786-0 renal) was 0.232 µM, the TGI (786-0 renal) was 2.52 µM and the GI50 (NCI/ADR-RES ovarian) was 0.0848 µM. It also gave a TGI (NCI/ADR-RES ovarian) of 0.926 µM, a GI50 (SNB-75 CNS) of 0.438 µM and a TGI (SNB-75 CNS) of 2.65 µM. It also gave a GI50 (HS 578T breast) of 0.689 µM, a GI50 (RPMI-8226 leukemia) of 0.241 µM and a TGI (RPMI-8226 leukemia) of 3.32 µM. For the same molecule, the GI50 (NCI-H226 lung) was 0.324 µM, the TGI (NCI-H226 lung) was 2.1 µM and the GI50 (K-562 leukemia) was 0.833 µM. The TGI (K-562 leukemia) was 64.5 µM, the GI50 (MDA-MB-435) was 0.311 µM and the TGI (MDA-MB-435) was 1.32 µM. The GI50 (COLO 205 colon) was 0.171 µM, the GI50 (SF-539 CNS) was 0.0313 µM and the TGI (SF-539 CNS) was 0.23 µM. For the same molecule, the GI50 (RXF 393 renal) was 0.861 µM, the GI50 (T-47D breast) was 8.34 µM and the TGI (T-47D breast) was > 34.6 µM. The GI50 (SW-620 colon) was 0.105 µM, the TGI (SW-620 colon) was 1.02 µM and the GI50 (HOP-62 NSCLC) was 0.062 µM. The TGI (HOP-62 NSCLC) was 0.386 µM, the GI50 (OVCAR-4 ovarian) was 1.66 µM and the TGI (OVCAR-4 ovarian) was 6.34 µM. For the same molecule, the GI50 (PC-3 prostate) was 0.313 µM, the TGI (PC-3 prostate) was 3.3 µM and the GI50 (KM12 colon) was 0.261 µM. For the same molecule, the TGI (KM12 colon) was 1.38 µM, the GI50 (MOLT-4 leukemia) was 5.43 µM and the TGI (MOLT-4 leukemia) was > 100 µM. For the same molecule, the GI50 (HCT-116 colon) was 0.137 µM, the TGI (HCT-116 colon) was 1.03 µM and the GI50 (UO-31 renal) was 0.124 µM. It also gave a TGI (UO-31 renal) of 0.386 µM, a TGI (NCI-H23 lung) of 0.0265 µM and a GI50 (SN12C renal) of 0.0706 µM. The TGI (SN12C renal) was 1.28 µM, the GI50 (HCC-2998 colon) was 0.105 µM and the TGI (HCC-2998 colon) was 0.415 µM. The GI50 (HOP-92 NSCLC) was 9.92 µM, the TGI (HOP-92 NSCLC) was 35.6 µM and the GI50 (U251 CNS) was 0.152 µM. For the same molecule, the TGI (U251 CNS) was 0.835 µM, the GI50 (SF-268 CNS) was 0.257 µM and the TGI (SF-268 CNS) was 5.28 µM. The GI50 (SF-295 CNS) was 0.076 µM, the TGI (SF-295 CNS) was 0.566 µM and the GI50 (CCRF-CEM leukemia) was 3.35 µM. The TGI (CCRF-CEM leukemia) was 62.8 µM, the GI50 (MDA-MB-231 breast) was 20 µM and the TGI (MDA-MB-231 breast) was 46.2 µM. For the same molecule, the GI50 (DU-145 prostate) was < 0.0112 µM, the TGI (DU-145 prostate) was 0.234 µM and the GI50 (EKVX NSCLC) was 3.09 µM. The TGI (EKVX NSCLC) was 17 µM, the GI50 (HCT-15 colon) was 0.0651 µM and the TGI (HCT-15 colon) was 0.649 µM. The GI50 (BT-549 breast) was 0.293 µM, the TGI (BT-549 breast) was 1.57 µM and the GI50 (SK-MEL-5 melanoma) was 0.0577 µM. For the same molecule, the TGI (SK-MEL-5 melanoma) was 0.191 µM, the GI50 (A498 renal) was 0.358 µM and the TGI (A498 renal) was 1.76 µM. For the same molecule, the GI50 (MCF7 breast) was 0.0634 µM, the GI50 (OVCAR-8 ovarian) was 0.628 µM and the TGI (OVCAR-8 ovarian) was > 20.5 µM. The GI50 (TK-10 renal) was 0.261 µM, the TGI (TK-10 renal) was 1.49 µM and the GI50 (A549 NSCLC) was 0.0623 µM. For the same molecule, the TGI (A549 NSCLC) was 3.18 µM, the GI50 (UACC-257 melanoma) was 0.925 µM and the TGI (UACC-257 melanoma) was 3.65 µM. The GI50 (CAKI-1 renal) was 0.018 µM, the TGI (CAKI-1 renal) was 0.293 µM and the GI50 (SK-MEL-2 melanoma) was 0.3 µM. For the same molecule, the TGI (SK-MEL-2 melanoma) was 3.32 µM, the GI50 (HT29 colon) was 0.22 µM and the GI50 (NCI-H522 lung) was 0.2 µM. It also gave a TGI (NCI-H522 lung) of 1.98 µM, a GI50 (M14 melanoma) of 0.0139 µM and a TGI (M14 melanoma) of 0.127 µM. It also gave a GI50 (SK-OV-3 ovarian) of 0.509 µM and a TGI (SK-OV-3 ovarian) of 23.2 µM.
